In US7829499B2, “Granular pesticide preparation” (Kumiai Chemical Industry Co., Ltd., priority 2003, dated 2010):

Assay: pKa of the pesticidal active ingredient
Format: physicochemical
From the text: When the acidic pesticidal active ingredient having the above specified pKa is used, the pKa of the ingredient is, for example, measured by a method described in “Jikken Kagaku Kouza”, Vol. 5 (thermal measurement and equilibrium), p. 469-p. 474, Maruzen Co., Ltd. published Jan. 20, 1958 and elsewhere.

| Compound | pKa |
| --- | --- |
| COCc1cccc(C(O)c2nc(OC)cc(OC)n2)c1NS(=O)(=O)C(F)F (centres unmarked) [compound A, 2-[(4,6-dimethoxypyrimidin-2-yl)hydroxymethyl]-6-methoxymethyl-N-difluoromethanesulfonyl anilide] | 5.75 |
| CCc1cccc(C(O)c2nc(OC)cc(OC)n2)c1NS(=O)(=O)C(F)F (centres unmarked) [compound B, 2-[(4,6-dimethoxypyrimidin-2-yl)hydroxymethyl]-6-ethyl-N-difluoromethanesulfonyl anilide] | 6.17 |
